Assay results: patent US11932606B2, “Anti-cancer/anti-fibrosis compounds” (THE REGENTS OF THE UNIVERSITY OF CALIFORNIA, priority 2017, dated 2024)
Like-named read-outs stand apart in the source and are kept apart here.

Legend:
[1] = target: HIPK2 (Homo sapiens (Human), UniProt Q9H2X6); assay: HIPK2 enzymatic activity inhibition (Z'-LYTE); type: biochemical
Method: HIPK2 Enzymatic Activity Inhibition: Determination of IC50 Values for Selected Compounds
The half maximal inhibitory concentration (IC50) with respect to HIPK2 inhibition was determined for the compounds of the invention by using Z′-LYTE™ from ThermoFisher Scientific's SelectScreen™ Biochemical Kinase Profiling Service (Waltham, MA). Compounds were screened in 1% DMSO (final) in the well. For 10 point titrations, 3-fold serial dilutions were conducted from the starting concentration. The 2×HIPK2/Ser/Thr 09 mixture was prepared in 50 mM HEPES pH 7.5, 0.01% BRIJ-35, 10 mM MgCl2, 1 mM EGTA.
100 nL of 100× test compound in 100% DMSO, 2.4 uL of kinase buffer (50 mM HEPES pH 7.5, 0.01% BRIJ-35, 10 mM MgCl2, 1 mM EGTA), 5 uL of 2×HIPK2/Ser/Thr 09 mixture, and 2.5 uL of 4×ATP solution were mixed and agitated for 30 seconds. Then the Kinase Reaction was incubated at room temperature for 60 minutes. […] After 30 second of plate shake, the reaction plate was incubated for another 60 min at room temperature. Then the plate was read on a fluorescence plate reader (CLARIOstar, BMG Labtech, Germany) as plate reader and data was analyzed using XLfit from IDBS.

[2] = target: CSNK2A1 (CK2 alpha 1) (Homo sapiens (Human), UniProt P68400); assay: CK2 alpha 1 enzymatic activity inhibition (Z'-LYTE); type: biochemical; conditions: read-out: CK2a IC50
CSNK2A1 (CK2 alpha 1), sequence (P68400 whole entry): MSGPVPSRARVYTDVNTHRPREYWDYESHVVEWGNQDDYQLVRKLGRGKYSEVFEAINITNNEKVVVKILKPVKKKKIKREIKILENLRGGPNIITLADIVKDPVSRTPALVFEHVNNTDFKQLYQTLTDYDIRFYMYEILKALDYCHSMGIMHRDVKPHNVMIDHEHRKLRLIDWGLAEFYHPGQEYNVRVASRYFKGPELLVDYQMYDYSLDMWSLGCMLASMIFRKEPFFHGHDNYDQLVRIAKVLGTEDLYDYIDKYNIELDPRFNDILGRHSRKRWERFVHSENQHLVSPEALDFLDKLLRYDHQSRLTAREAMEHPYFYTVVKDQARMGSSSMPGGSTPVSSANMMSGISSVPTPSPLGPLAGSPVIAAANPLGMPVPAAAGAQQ
Method: CK2 Alpha 1 Enzymatic Activity Inhibition: Determination of IC50 Values for Selected Compounds
The half maximal inhibitory concentration (IC50) with respect to CK2 alpha 1 inhibition was determined for the compounds of the invention by using Z′-LYTE™ from ThermoFisher Scientific's SelectScreen™ Biochemical Kinase Profiling Service (Waltham, MA). Compounds were screened in 1% DMSO (final) in the well. For 10 point titrations, 3-fold serial dilutions were conducted from the starting concentration. The 2×CSNK2A1 (CK2 alpha 1)/Ser/Thr 11 mixture is prepared in 50 mM HEPES pH 7.5, 0.01% BRIJ-35, 10 mM MgCl2, 1 mM EGTA. The black 384-well plate (Corning Cat. #4514) were used for the assay. 100 nL of 100× test compound in 100% DMSO, 2.4 uL of kinase buffer (50 mM HEPES pH 7.5, 0.01% BRIJ-35, 10 mM MgCl2, 1 mM EGTA), 5 uL of 2×CSNK2A1 (CK2 alpha 1)/Ser/Thr 11 mixture, and 2.5 uL of 4×ATP solution were mixed and agitated for 30 seconds. Then the Kinase Reaction was incubated at room temperature for 60 minutes. The final 10 uL Kinase Reaction consisted of 0.68-25.7 ng CSNK2A1 (CK2 alpha 1) and 2 μM Ser/Thr 11 in 50 mM HEPES pH 7.5, 0.01% BRIJ-35, 10 mM MgCl2, 1 mM EGTA. After the 1 hour Kinase Reaction incubation, 5 uL of a 1:16 dilution of Development Reagent B is added. After 30 second of plate shake, the reaction plate was incubated for another 60 min at room temperature. Then the plate was read on a fluorescence plate reader (CLARIOstar, BMG Labtech, Germany) and data was analyzed using XLfit from IDBS. The dose response curve was curve fit to model number 205 (sigmoidal dose-response model).

HIPK2, sequence (Q9H2X6 whole entry): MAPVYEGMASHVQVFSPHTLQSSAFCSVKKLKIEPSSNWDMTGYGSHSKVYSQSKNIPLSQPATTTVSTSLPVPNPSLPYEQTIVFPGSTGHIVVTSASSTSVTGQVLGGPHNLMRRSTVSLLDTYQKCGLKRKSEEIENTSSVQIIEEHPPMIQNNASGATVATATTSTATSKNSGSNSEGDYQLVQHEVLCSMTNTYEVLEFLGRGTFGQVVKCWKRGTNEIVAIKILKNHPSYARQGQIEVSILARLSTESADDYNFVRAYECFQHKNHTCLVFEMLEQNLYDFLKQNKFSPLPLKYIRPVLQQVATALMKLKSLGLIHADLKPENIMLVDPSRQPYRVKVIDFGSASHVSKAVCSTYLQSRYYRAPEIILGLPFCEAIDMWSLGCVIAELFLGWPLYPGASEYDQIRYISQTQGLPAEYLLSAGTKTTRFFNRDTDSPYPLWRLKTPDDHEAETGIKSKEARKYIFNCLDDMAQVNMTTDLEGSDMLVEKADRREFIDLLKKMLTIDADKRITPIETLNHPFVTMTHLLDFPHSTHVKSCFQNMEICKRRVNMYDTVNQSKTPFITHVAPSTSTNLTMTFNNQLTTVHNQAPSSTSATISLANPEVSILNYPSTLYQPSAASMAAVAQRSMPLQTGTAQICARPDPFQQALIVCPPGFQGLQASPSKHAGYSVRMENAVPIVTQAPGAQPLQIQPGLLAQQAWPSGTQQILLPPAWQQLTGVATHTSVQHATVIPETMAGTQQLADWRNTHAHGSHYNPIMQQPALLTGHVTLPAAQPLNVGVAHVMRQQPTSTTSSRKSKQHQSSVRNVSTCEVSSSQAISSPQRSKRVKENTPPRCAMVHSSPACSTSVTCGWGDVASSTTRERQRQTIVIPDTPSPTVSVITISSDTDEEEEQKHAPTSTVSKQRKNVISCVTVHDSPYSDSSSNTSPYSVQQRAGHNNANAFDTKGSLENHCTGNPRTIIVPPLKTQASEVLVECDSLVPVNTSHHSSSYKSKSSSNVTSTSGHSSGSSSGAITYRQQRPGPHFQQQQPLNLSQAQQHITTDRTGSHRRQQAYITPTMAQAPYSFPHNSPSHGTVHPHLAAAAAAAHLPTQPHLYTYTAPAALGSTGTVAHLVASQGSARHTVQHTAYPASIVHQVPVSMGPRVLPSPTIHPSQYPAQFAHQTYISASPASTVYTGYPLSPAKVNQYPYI

| IC50 ([1]; read-out: HIPK2 IC50) [nM] | SMILES | IC50 [2] [nM] | IC50 [1] [nM] |
| --- | --- | --- | --- |
| < 300 | O=C(O)c1ccc2c(c1)cc(Br)c1ccncc12 [Compound 1, Sodium 5-bromobenzo[h]isoquinoline-8-carboxylate] | < 300 | – |
| – | O=C(O)c1ccc2c(ccc3ccncc32)c1 [Compound 2, Sodium benzo[h]isoquinoline-8-carboxylate] | < 300 | 1000 to 5000 |
| – | O=C(O)c1ccc2c(c1)cc(Cl)c1ccncc12 [Compound 3, Sodium 5-chlorobenzo[h]isoquinoline-8-carboxylate] | < 300 | 300 to 1000 |
| – | O=C(O)c1ccc2c(c1)cc(Nc1cccc(Cl)c1)c1ccncc12 [Compound 4, Sodium 5-((3-chlorophenyl)amino)benzo[h]isoquinoline-8-carboxylate] | < 300 | 300 to 1000 |
| – | O=C(O)c1ccc2c(c1)cc(Nc1ccc(Cl)cc1)c1ccncc12 [Compound 5, Sodium 5-((4-chlorophenyl)amino)benzo[h]isoquinoline-8-carboxylate] | < 300 | 300 to 1000 |
| – | O=C(O)c1ccc2c(c1)cc(-c1ccc(Cl)cc1)c1ccncc12 [Compound 6, Sodium 5-(4-chlorophenyl)benzo[h]isoquinoline-8-carboxylate] | 300 to 1000 | 1000 to 5000 |
| – | O=C(O)c1ccc2c(c1)cc(-c1cccnc1)c1ccncc12 [Compound 7, Sodium 5-(pyridin-3-yl)benzo[h]isoquinoline-8-carboxylate] | < 300 | 1000 to 5000 |
| – | O=C(O)c1ccc2c(c1)cc(-c1ccncc1)c1ccncc12 [Compound 8, Sodium 5-(pyridin-4-yl)benzo[h]isoquinoline-8-carboxylate] | < 300 | 1000 to 5000 |
| – | Cc1cc2cc(C(=O)O)ccc2c2cnccc12 [Compound 9, Sodium 5-methylbenzo[h]isoquinoline-8-carboxylate] | < 300 | 300 to 1000 |
| – | Nc1ccc(-c2cc3cc(C(=O)O)ccc3c3cnccc23)cn1 [Compound 10, Sodium 5-(6-aminopyridin-3-yl)benzo[h]isoquinoline-8-carboxylate] | < 300 | 300 to 1000 |
| – | O=C(O)c1ccc2c(c1)cc(-c1cc[nH]n1)c1ccncc12 [Compound 11, Sodium 5-(1H-pyrazol-3-yl)benzo[h]isoquinoline-8-carboxylate] | < 300 | 1000 to 5000 |
| – | O=C(O)c1ccc2c(c1)cc(NC1CCCCC1)c1ccncc12 [Compound 12, Sodium 5-(cyclohexylamino)benzo[h]isoquinoline-8-carboxylate] | < 300 | 300 to 1000 |
| – | O=C(O)c1ccc2c(c1)cc(N[C@@H]1CCCNC1)c1ccncc12 [Compound 13, (R)-5-(Piperidin-3-ylamino)benzo[h]isoquinoline-8-carboxylic acid] | 1000 to 5000 | 1000 to 5000 |
| > 5000 | N[C@@H]1CCCN(c2cc3cc(C(=O)O)ccc3c3cnccc23)C1 [Compound 14, (R)-5-(3-Aminopiperidin-1-yl)benzo[h]isoquinoline-8-carboxylic acid] | < 300 | – |
| – | O=C(O)c1ccc2c(c1)cc(NC1CCCC1)c1ccncc12 [Compound 15, Sodium 5-(cyclopentylamino)benzo[h]isoquinoline-8-carboxylate] | < 300 | 300 to 1000 |
| – | CC(C)CNc1cc2cc(C(=O)O)ccc2c2cnccc12 [Compound 16] | < 300 | – |
| < 300 | O=C(O)c1ccc2c(c1)cc(NC1CC1)c1ccncc12 [Compound 17, Sodium 5-(cyclopropylamino)benzo[h]isoquinoline-8-carboxylate] | < 300 | – |

| IC50 ([1]; read-out: HIPK2 IC50) [nM] | SMILES | IC50 [2] [nM] | IC50 [1] [nM] |
| --- | --- | --- | --- |
| – | O=C(O)c1ccc2c(c1)cc(NC1CCC1)c1ccncc12 [Compound 18, Sodium 5-(cyclobutylamino)benzo[h]isoquinoline-8-carboxylate] | < 300 | 300 to 1000 |
| – | CC[C@H](C)Nc1cc2cc(C(=O)O)ccc2c2cnccc12 [Compound 19, (S)-5-(sec-Butylamino)benzo[h]isoquinoline-8-carboxylic acid] | < 300 | 1000 to 5000 |
| – | O=C(O)c1ccc2c(c1)cc(N1CCCCC1)c1ccncc12 [Compound 20, Sodium 5-(piperidin-1-yl)benzo[h]isoquinoline-8-carboxylate] | < 300 | 300 to 1000 |
| – | CC(C)Nc1cc2cc(C(=O)O)ccc2c2cnccc12 [Compound 21, Sodium 5-(isopropylamino)benzo[h]isoquinoline-8-carboxylate] | < 300 | 300 to 1000 |
| < 300 | CC[C@@H](C)Nc1cc2cc(C(=O)O)ccc2c2cnccc12 [Compound 22, Sodium (R)-5-(sec-butylamino)benzo[h]isoquinoline-8-carboxylate] | < 300 | – |
| – | O=C(O)c1ccc2c(c1)cc(Br)c1ccnc(Cl)c12 [Compound 23, Sodium 5-bromo-1-chlorobenzo[h]isoquinoline-8-carboxylate] | < 300 | 300 to 1000 |
| > 5000 | O=C(O)c1ccc2c(c1)cc(Br)c1cc(Cl)ncc12 [Compound 24, Sodium 5-bromo-3-chlorobenzo[h]isoquinoline-8-carboxylate] | 1000 to 5000 | – |
| – | O=C(O)c1ccc2c(ccc3ccnc(Cl)c32)c1 [Compound 25, Sodium 1-chlorobenzo[h]isoquinoline-8-carboxylate] | < 300 | 1000 to 5000 |
| – | O=C(O)c1ccc2c(c1)cc([N+](=O)[O-])c1ccncc12 [Compound 26, Sodium 5-nitrobenzo[h]isoquinoline-8-carboxylate] | < 300 | 300 to 1000 |
| – | N#Cc1cc2cc(C(=O)O)ccc2c2cnccc12 [Compound 27, Sodium 5-cyanobenzo[h]isoquinoline-8-carboxylate] | < 300 | 300 to 1000 |
| – | O=C(O)c1ccc2c(c1)cc(C1CC1)c1ccncc12 [Compound 28, Sodium 5-cyclopropylbenzo[h]isoquinoline-8-carboxylate] | < 300 | 300 to 1000 |
| – | CN(C)c1nccc2c(Br)cc3cc(C(=O)O)ccc3c12 [Compound 30, Sodium 5-bromo-1-(dimethylamino)benzo[h]isoquinoline-8-carboxylate] | 1000 to 5000 | 1000 to 5000 |
| – | O=C(O)c1ccc2c(c1)cc(Br)c1ccnc(NC3CC3)c12 [Compound 31, Sodium 5-bromo-1-(cyclopropylamino)benzo[h]isoquinoline-8-carboxylate] | 1000 to 5000 | 1000 to 5000 |
| – | CNc1nccc2c(Br)cc3cc(C(=O)O)ccc3c12 [Compound 32, Sodium 5-bromo-1-(methylamino)benzo[h]isoquinoline-8-carboxylate] | 300 to 1000 | 1000 to 5000 |
| – | NC(=O)c1ccc2c(c1)cc(Br)c1ccnc(N)c12 [Compound 33, 1-Amino-5-bromobenzo[h]isoquinoline-8-carboxamide] | 1000 to 5000 | 300 to 1000 |
| – | COc1nccc2c(Br)cc3cc(C(=O)O)ccc3c12 [Compound 34, Sodium 5-bromo-1-methoxybenzo[h]isoquinoline-8-carboxylate] | 300 to 1000 | 1000 to 5000 |
| < 300 | Nc1nccc2cc(Br)c3cc(C(=O)O)ccc3c12 [Compound 35, Sodium 1-amino-6-bromobenzo[h]isoquinoline-8-carboxylate] | 300 to 1000 | – |
